Results reported in ChEMBL document CHEMBL1138055, “Tetraoxane antimalarials and their reaction with Fe(II)” (J Med Chem, 2006).

Columns and labels:
[1] = tested on: Mus musculus; assay: Effect on survival of CD1 mice (Mus musculus) infected with Plasmodium berghei KBG173 at 50 mg/kg/day, perorally; type: functional; details: route oral
[2] = tested on: SNB-75; assay: Antiproliferative activity against human SNB75 cell line after 48 hrs; type: functional; details: SNB-75, 48 h
[3] = tested on: Mus musculus; assay: Effect on survival of CD1 mice (Mus musculus) infected with Plasmodium berghei KBG173 at 200 mg/kg/day, perorally; type: functional; details: route oral
[4] = tested on: HCT-15; assay: Antiproliferative activity against human HCT15 cell line after 48 hrs; type: functional; details: HCT-15, 48 h
[5] = tested on: UACC-62; assay: Antiproliferative activity against human UACC62 cell line after 48 hrs; type: functional; details: UACC-62, 48 h
[6] = tested on: SK-MEL-2; assay: Antiproliferative activity against human SK-MEL2 cell line after 48 hrs; type: functional; details: SK-MEL-2, 48 h
[7] = tested on: DU-145; assay: Antiproliferative activity against human DU145 cell line after 48 hrs; type: functional; details: DU-145, 48 h
[8] = tested on: UO-31; assay: Antiproliferative activity against human UO31 cell line after 48 hrs; type: functional; details: Homo sapiens, UO-31, 48 h; for CC50: read-out: LC50 (the source's name)
[9] = tested on: ACHN; assay: Antiproliferative activity against human ACHN cell line after 48 hrs; type: functional
[10] = tested on: HOP-62; assay: Antiproliferative activity against human HOP62 cell line after 48 hrs; type: functional; details: Homo sapiens, HOP-62, 48 h; for CC50: read-out: LC50 (the source's name)
[11] = tested on: COLO 205; assay: Antiproliferative activity against human COLO 205 cell line after 48 hrs; type: functional; details: Homo sapiens, COLO 205, 48 h; for CC50: read-out: LC50 (the source's name)
[12] = tested on: Plasmodium falciparum
Description: (§1) Antimalarial activity against Plasmodium falciparum D6

[13] = tested on: IGROV-1; assay: Antiproliferative activity against human IGROV1 cell line after 48 hrs; type: functional; details: for CC50: read-out: LC50 (the source's name)
[14] = tested on: PC-3; assay: Antiproliferative activity against human PC3 cell line after 48 hrs; type: functional; details: PC-3, 48 h
[15] = tested on: Plasmodium falciparum; remark: listed apart in the source
Description: (§2) Antimalarial activity against Plasmodium falciparum W2

[16] = tested on: Mus musculus; assay: Effect on survival of CD1 mice (Mus musculus) infected with Plasmodium berghei KBG173 at 600 mg/kg/day, perorally; type: functional, organism-based; design: route oral; details: route oral
[17] = tested on: EKVX; assay: Antiproliferative activity against human EKVX cell line after 48 hrs; type: functional; details: Homo sapiens, EKVX, 48 h
[18] = tested on: Plasmodium falciparum; assay: microbe, parasite or virus in culture; details: D6
Description: as §1

[19] = tested on: Plasmodium falciparum; assay: microbe, parasite or virus in culture; details: TM91C235
Description: Antimalarial activity against Plasmodium falciparum TM91C235

[20] = tested on: Plasmodium falciparum; assay: microbe, parasite or virus in culture; details: W2
Description: as §2

[21] = tested on: Mus musculus; assay: Effect on survival of CD1 mice (Mus musculus) infected with Plasmodium berghei KBG173 at 2 mg/kg/day, perorally; type: functional; details: route oral
[22] = tested on: Mus musculus; assay: Effect on survival of CD1 mice (Mus musculus) infected with Plasmodium berghei KBG173 at 4 mg/kg/day, peroral; type: functional; details: route oral
[23] = read-out: LC50 (the source's name)

CC(=O)O[C@H]1C[C@H]2[C@@H]([C@H](OC(C)=O)C[C@@H]3CC4(CC[C@@]32C)OOC2(CCC(C)CC2)OO4)[C@@H]2CC[C@H]([C@H](C)CCC(N)=O)[C@@]12C (stereo in doubt; 17)
Activity [1]: 21.2 days
GI50 [2]: 1.98 µM
TGI [2]: 4.05 µM
CC50 [2, 23]: 8.28 µM
Activity [3]: 21.8 days
GI50 [4]: 1.71 µM
TGI [4]: 3.43 µM
CC50 [4, 23]: 6.86 µM
GI50 [5]: 1.85 µM
TGI [5]: 3.99 µM
CC50 [5, 23]: 8.59 µM
GI50 [6]: 1.71 µM
TGI [6]: 3.2 µM
CC50 [6, 23]: 6.01 µM
GI50 [7]: 1.82 µM
TGI [7]: 3.26 µM
CC50 [7, 23]: 5.85 µM
GI50 [8]: 1.26 µM
TGI [8]: 2.64 µM
CC50 [8]: 5.5 µM
LC50 [9]: 5.73 µM
GI50 ([9]; Homo sapiens, ACHN, 48 h): 1.5 µM
TGI ([9]; Homo sapiens, ACHN, 48 h): 2.93 µM
GI50 [10]: 1.07 µM
TGI [10]: 2.31 µM
CC50 [10]: 4.98 µM
GI50 [11]: 1.69 µM
TGI [11]: 3.12 µM
CC50 [11]: 5.76 µM
IC50 [12]: 0.02 µM
GI50 [13]: 0.49 µM
TGI ([13]; Homo sapiens, IGROV-1, 48 h): 1.84 µM
CC50 ([13]; Homo sapiens, IGROV-1, 48 h): 4.95 µM
GI50 [14]: 1.97 µM
TGI [14]: 4.29 µM
CC50 [14, 23]: 9.31 µM
IC50 [15]: 0.0141 µM
Activity [16]: 30 days
GI50 [17]: 1.43 µM
LC50 [17]: 5.41 µM
TGI [17]: 2.78 µM

CC(=O)O[C@H]1C[C@H]2[C@@H]([C@H](OC(C)=O)C[C@@H]3CC4(CC[C@@]32C)OOC2(CCC(C)CC2)OO4)[C@@H]2CC[C@H]([C@H](C)CCC(=O)O)[C@@]12C (stereo in doubt; 18)
Activity [1]: 10.2 days
Activity [3]: 22.6 days
GI50 [8]: 1.5 µM
TGI [8]: 3 µM
CC50 [8]: 6.02 µM
GI50 [10]: 1.64 µM
TGI [10]: 3.49 µM
CC50 [10]: 7.4 µM
GI50 [11]: 1.98 µM
TGI [11]: 4.4 µM
CC50 [11]: 9.78 µM
IC50 [12]: 0.0311 µM
GI50 ([13]; Homo sapiens, IGROV-1, 48 h): 1.4 µM
TGI ([13]; Homo sapiens, IGROV-1, 48 h): 2.76 µM
CC50 ([13]; Homo sapiens, IGROV-1, 48 h): 5.43 µM
IC50 [15]: 0.0177 µM
Activity [16]: 20 days
GI50 [17]: 1.45 µM
LC50 [17]: 5.78 µM
TGI [17]: 2.9 µM

C[C@@H]1CC[C@H]2[C@@H](C)C(=O)O[C@@H]3O[C@@]4(C)CC[C@@H]1[C@]32OO4 [ARTEMISININ]
IC50 [18]: 0.009 µM
IC90 [18]: 0.0128 µM
IC50 [19]: 0.013 µM
IC90 [19]: 0.0174 µM
IC50 [20]: 0.0067 µM
IC90 [20]: 0.0115 µM

CCN(CC)CCCC(C)Nc1ccnc2cc(Cl)ccc12 (stereo not drawn) [CHLOROQUINE]
Activity [21]: 12.8 days
IC90 [18]: 0.0176 µM
IC90 [19]: 0.269 µM
Activity [22]: 25.6 days
IC90 [20]: 0.491 µM

O[C@@H](c1cc(C(F)(F)F)nc2c(C(F)(F)F)cccc12)[C@H]1CCCCN1 [MEFLOQUINE]
IC50 [18]: 0.0105 µM
IC90 [18]: 0.0217 µM
IC50 [19]: 0.0164 µM
IC90 [19]: 0.0657 µM
IC50 [20]: 0.0031 µM
IC90 [20]: 0.0084 µM
